Measurements: US7960549B2, “Solid forms of a chemokine receptor antagonist and methods of use thereof” (priority 2004, dated 2011)
Counter-ions that a name gives are not always drawn.

Legend:
Type in all cases: physicochemical
[1] = Differential scanning calorimetry (DSC)
Procedure: Differential scanning calorimetry (DSC) analyses are performed using a T.A Instruments Q1000 thermal analyser. Analyses are carried out using nitrogen purge gas flowing at an average rate of 50 ml/min. A mechanical compressor cools the system, and equilibrates the instruments being used at ambient temperature between analyses. […] Energy calibration is performed with a certified indium calibrator (melting enthalpy of 28.45 J/g), applying a heating rate of 5° C./min. The temperatures identified from DSC scans of a particular sample are accurate to within ±3° C. […] Modulated temperature differential scanning calorimetry (MTDSC) is also used since deconvolution of the total heat flow into reversing and non-reversing heat flows allows the transitions to be easily identified. The samples were submitted to the same experimental temperature program: after the equilibration of the sample at −5° C., the samples were heated through a modulated program from −5° C. to 210° C. at a rate of 1° C./min. […] Experiments are performed using crimped aluminium sample pans or open pans in some cases. The quantity of product analysed is typically between 2 and 13 mg.

[2] = Controlled temperature (isothermal) X-ray powder diffraction: thermal stability of the crystalline form; conditions: isothermal scans at intervals of 10° C.
Procedure: X-ray powder diffraction (XRPD) is performed on various samples of the Citrate Salt using one of three instruments. XRPD measurements with Instrument 1 utilize a Siemens-Bruker D5000 Matic powder diffractometer with a Bragg-Brentano (vertical θ-2θ configuration) parafocusing geometry. X-rays are produced from a sealed cobalt anode running at 40 kV and 30 mA. Two lines are typically emitted: CoKα1 (λ=1.7890 Å) and CoKα2 (λ=1.7929 Å). An iron β-filter limits the CoKβ (λ=1.6208 Å) radiation to about 1% of the diffracted beam at the detector. The primary beam passes through a parallel plate collimator (0.2 mm Soller slits), then through a divergence slit (0.2 mm). Diffracted X-rays are detected with a Braun 50 M multichannel linear detector having a 10°-wide detection window in angle 2θ. Scans are performed from 1.5° to 50.0° in 2θ, the scan time being 10 to 40 seconds per degree in 2θ. The error in the 2θ locations are typically within ±0.10 degrees.
In Instrument 3, XRPD measurements are performed at different temperatures to elucidate the evolution of crystal structure with temperature. Tests are carried out with a Siemens-Bruker D5000 diffractometer equipped with the Bragg Brentano parafocusing (θ-θ) geometry and an Anton-Paar TTK temperature chamber. Measurements utilize dry nitrogen or nitrogen streams having a particular humidity. The instrument specifications are substantially similar to the Siemens-Bruker D5000 Matic instrument described above (Instrument 1). Temperature is allowed to rise at a rate of 0.05° C./sec. Scans are recorded under the following conditions: a 1.5 to 50.0 degree scan in angle 2θ, 10 to 20 seconds counting time per degree in 2θ. Data are acquired in isotherm mode when the requested temperature is reached.

[3] = Prolonged exposure to fixed relative humidity or rinsing with water, XRPD before and after; conditions: week long exposure; ambient temperature
[4] = Thermal gravimetric analysis (TGA)
Procedure: Measurements utilizing thermal gravimetric analysis (TGA) are carried out on a T.A. instruments TGAQ500 analyzer. Mass calibration is performed with 10 and 100 mg certified masses. Temperature calibration is performed with Alumel® and nickel standards (Curie points of respectively 154° C. and 354° C.). Samples are exposed to a constant nitrogen stream of 60 ml/min, and temperature ranges from room temperature to 350° C. at a 5° C./min rate. The quantity of product tested is between 2 and 13 mg. The sample is deposited in an open aluminum sample pan, which is itself placed in a platinum pan. The temperatures identified from TGA scans of a particular sample are accurate to within ±3° C. Simultaneous TGA and DSC measurements are carried out using a […] thermal analysis system produced by the […] corporation. A liquid nitrogen cooling system makes it possible to work at temperatures below 20° C. The emitted gases, upon sample heating, are carried by a transfer capillary tube to a Pfeiffer mass spectrometer, the capillary tube heated to 150° C. The mass spectrometer can analyze molecular fragments at <<m/e>> ratios between 1 and 200 uma. A sample with a mass between 1 and 27 mg is contained in an open concave aluminum sample pan (75 μL capacity) exposed to a nitrogen stream. The sample is heated at a rate of 1 or 5° C./min.

[5] = Water sorption/desorption cycling (dynamic vapor sorption, DVS) at 25° C., with XRPD before and after; conditions: 25° C.
Procedure: Water sorption measurements are performed on a DVS-1 automated gravimetric vapor sorption analyser (Surface Measurement Systems Ltd., London, UK). The DVS-1 measures the uptake and loss of vapor gravimetrically using a Cahn D200 recording ultra-microbalance with a mass resolution of ±0.1 μg. The relative humidity around the sample is controlled by mixing saturated and dry carrier gas streams using mass flow controllers. The temperature is maintained within ±0.1° C. by enclosing the entire system in a temperature-controlled incubator. A sample size between 15 and 20 mg is used. In general, the error in % (w/w) identified in a tested sample is ±0.1% (w/w).
Two protocols are utilized to operate the DVS. In one protocol, a sample is dried at 0% relative humidity (RH) to remove any surface water present and establish a dry, baseline mass. Next, the sample is exposed to the following relative humidity profile: 0%, 10%, 20%, 30%, 40%, 50%, 60%, 70%, 80%, 90%, 80%, 70%, 60%, 50%, 40%, 30%, 20%, 10%, 0%. In some instances, this profile is repeated, yielding 4 sets of data going up and down in RH. In another protocol, the sample is first equilibrated at 40% RH, then it was exposed to the following relative humidity profile: 40%, 50%, 60%, 70%, 80%, 90%, 100%, 90%, 80%, 70%, 60%, 50% 40% 30%, 20% 10%, 0%, 10%, 20%, 30%, 40%. […] If equilibrium state is not reached, the change in relative humidity took place automatically after 360 or 600 minutes. From the complete moisture sorption and desorption profile, an isotherm is calculated using the DVS Advanced Analysis Suite v3.6. All experiments were performed at 25° C.

[6] = heating rate 5° C./min, A, B, H: melting/decomposition, E: loss of water and conversion to Form H, ±3° C.
[7] = mixture of Forms A and D, 0.3° C./min, Form D: conversion to Form A, Form A: melting/decomposition
[8] = sample including Forms A and C, 5° C./min, Form C: conversion to Form A, Form A: melting/decomposition
[9] = heating rate 5° C./min, sample of the single form (Form H formed from Form E sample), ±3° C.

CC(C)(O)c1ccc2c(c1)/C(=C/CCN1CC[C@](O)(c3ccc(Cl)cc3)C(C)(C)C1)c1cccnc1CO2 [Form A, citrate salt of (S)-4-(4-Chloro-phenyl)-1-{3-[7-(1-hydroxy-1-methyl-ethyl)-11H-10-oxa-1-aza-dibenzo[a,d]cyclohepten-5-ylidene]-propyl}-3,3-dimethyl-piperidin-4-ol]
DSC endothermic transition, Tmax ([1]; heating rate 1° C./min): 167 °C | DSC endothermic transition, interpolated beginning temperature ([1]; heating rate 1° C./min): 164 °C | DSC endothermic transition, Tmax [1, 6]: 176 °C | DSC endothermic transition, interpolated beginning temperature [1, 6]: 169 °C | DSC endothermic transition, Tmax [1, 7]: 166 °C | DSC endothermic transition, interpolated beginning temperature [1, 7]: about 160 °C | DSC endothermic transition, Tmax [1, 8]: 178 °C | DSC endothermic transition, interpolated beginning temperature [1, 8]: about 173 °C | decomposition/melting observed with controlled temperature X-ray powder diffraction [2]: above 170 °C | crystal form by XRPD after exposure to a relative humidity of 97.5% [3]: does not change form | TGA weight loss from ambient temperature to about 100° C. ([4]; heating rate 5° C./min): about 0.23 % (w/w) | TGA weight loss of the transition ([4]; heating rate 5° C./min, sample of the single form (Form H formed from Form E sample)): about 27.5 % (w/w) | TGA weight loss transition, interpolated beginning temperature [4, 9]: about 164 °C | TGA weight loss transition, temperature of maximum rate of weight loss [4, 9]: 183 °C | TGA weight loss ([4]; sample including Forms A and C): 21.9 % (w/w) | TGA weight loss, temperature of maximum rate of weight loss ([4]; sample including Forms A and C): 183 °C | TGA weight loss, interpolated beginning temperature ([4]; sample including Forms A and C, Form C: conversion away from Form C, Form A: decomposition/melting): 168 °C | change in moles of water per mole of anhydrous crystal over relative humidity 0% to 90% [5]: about 0.8 moles of water per mole of anhydrous crystal | change in mass as the relative humidity is changed between 0% and 90% ([5]; dry crystal basis, known to within ±0.1%): about 1.9% | XRPD before and after water sorption/desorption cycling ([5]; two consecutive cycles, 0% to 90% relative humidity): no structural change
